How the values were obtained:
[1] = system: DG-75 Burkitt lymphoma cell line (EBV−, chemoresistant); test: cells; details: Homo sapiens, DG-75, 48 h; for viability at 1 µM: read-out: DG-75 Cell Viability % 1 μM, 1 μM, 48 h; for viability at 10 µM: read-out: DG-75 Cell Viability % 10 μM, 10 μM, 48 h; for IC50: read-out: IC50 DG-75 48 h
[2] = Viability of peripheral blood mononuclear cells (alamarBlue); type: cell-based; details: human, peripheral blood mononuclear cells (PBMCs); for viability at 24 h, 0.5 µM: read-out: viable PBMCs at 0.5 µM; for viability at 24 h, 1 µM: read-out: viable PBMCs at 1 µM
Method: BL cells were seeded in a 96-well plate (1–5 × 10^4 cells per 200 µL in well). Cells were treated with the desired drug concentration for a predetermined time frame and incubated as required. alamarBlue (20 µL) was added to each well and the cells were incubated at 37 °C in the dark for 4 h. Plates were then recorded on a fluorescence plate reader (SpectraMax Gemini, Molecular Devices) at 544 nm (excitement) and 590 nm (emission). Experiments were performed in triplicate using controls of reagent, medium and vehicle (100% viability). Taxol (10 μM) was used as the control drug (90% cytotoxicity) for both cell lines. The experiments were performed in triplicate and the mean value for three independent experiments was calculated.
Blood was obtained from healthy donors (n = 2) after informed consent was received. The blood was then placed into a 50 mL falcon tube and diluted with phosphate-buffered saline (PBS), 1:2. The blood was separated into red blood cells, white blood cell ring and serum using LymphoPrep. The blood was slowly added to Ficoll pague plus (20 mL). The tubes containing the blood were then centrifuged for 30 min at 1700 g. Following transfer of the white blood cell ring to a new 50 mL tube, the volume was adjusted to 50 mL. The samples were again centrifuged for 10 min at 1700 g. The, supernatant liquid was removed; and this step was repeated. The resultant pellet was then resuspended in 10 mL of complete Iscove’s Modified Dulbecco’s (IMDM) media (10% FBS, 0.1% Ciprofloxacin (10 mg/mL)) for use in the cell viability experiments.

[3] = system: DG-75 Burkitt's lymphoma cell line; test: FITC Annexin V/PI FACS analysis of apoptosis in DG-75 cells; type: cell-based; details: 48 h
Method: (§1) BL cells DG-75 and MUTU-1 (750,000) were treated with the specified concentration of the selected compound and incubated for 24 h (MUTU-1) or 48 h (DG-75) with taxol as the positive control. Samples were harvested by centrifugation and the pellets were rinsed with 0.5 mL of Ca^2+ Annexin V binding buffer (0.1 M HEPES, pH 7.4; 1.4 M NaCl; 25 mM CaCl2) each and pelleted again by centrifugation. Supernatants were decanted and the pellets were suspended again in 50 µL FITC Annexin V (diluted 1:33 in Ca^2+ Annexin V binding buffer), the samples were then placed on ice and incubated for 10 min in the dark. After the incubation period 0.5 mL of Ca^2+ Annexin V binding buffer was added and samples were pelleted by centrifugation. The supernatant was decanted and the pellet was suspended in PI solution (500 µL; 0.5 µg/mL). After 1 h, the samples were recorded using a CyAn ADP flow cytometer (Beckman Coulter Inc., Brea, CA, USA). 10,000 cells were analysed with the Flowjo software package. Taxol was used as a positive control for cell death.

DG-75 cell line = test: Lactate dehydrogenase (LDH) release cytotoxicity assay in DG-75 cells; type: cell-based; details: percentage of total LDH release
Method: (§2) The CytoTox 96 non-radioactive cytotoxicity assay (Promega Corporation; 2800 Woods Hollow Road, Madison, WI, USA) was used to determine the cyctotoxicity of selected compounds. BL cells were incubated for 24 hr and then treated with the selected compounds (at 10 μM concentration) 15, 16b and 16c as in the cell viability assay. After 24 or 48 h as appropriate, the lysis solution (10X), (20 μL) was added. The cells were incubated for a further 1 h to ensure complete death. The supernatant (50 μL) was removed and transferred to a new 96-well plate. “Substrate mix″ (50 μL) was added and the plate was retained in the dark at RT for 30 min. “Stop solution″ (50 μL) was added to each well and the absorbance was recorded at 490 nm with a Dynatech MR5000 plate reader and the cell death was calculated.

[4] = system: MUTU-1 Burkitt's lymphoma cell line; test: FITC Annexin V/PI FACS analysis of apoptosis in MUTU-I cells; type: cell-based; details: 24 h
Method: as §1

DG-75 cells = test: Effect of NAC antioxidant pre-treatment on viability of DG-75 cells (alamarBlue); type: cell-based; details: Homo sapiens, 1 µM compound, 48 h, no NAC, read-out: viable DG-75 cells without NAC
Method: Cell proliferation of DG-75 cells was determined with an alamarBlue assay (seeding density 2 × 10^4 cells/mL per well for 96-well plates), with vehicle control ethanol 1% (v/v). Cells were retained for 24 h and then pre-treated with NAC (5 mM) for 1 h, followed by compounds 15, 16b and 16c at 1 μM for 48 h. Cell viability was measured by alamarBlue assay (mean of three independent experiments).
N-Acetylcysteine (Sigma) was dissolved in sterile water (100 mM). Fresh solutions were prepared for each experiment. A 96 well plate was seeded with 2 × 10^4 cells/well for DG-75 cells. After 23 h, the DG-75 cells were then pre-treated with NAC (5 mM) for 1 h before compound treatment. The wells were then treated with the desired drug concentration (1 µM) for a predetermined time frame (48 h). After treatment and incubation, each well was treated with 20 µL of alamarBlue (37 °C) and the plate was incubated in the dark at 37 °C for 4–6 h. Fluorescence of the 96 well plates was then recorded at 590 nm (excitation 544 nm), as described for ‘alamarBlue viability assay’ (above). The percentage of viable cells remaining with NAC pre-treatment was compared to the percentage of viable cells remaining without NAC pre-treatment in order to determine the implication of ROS in the mechanism of cell death induced.

[5] = system: MUTU-1 Burkitt lymphoma cell line (EBV+); test: cells; details: Mutu-1, 24 h; for IC50: read-out: IC50 MUTU-I 24 h; for viability at 1 µM: read-out: MUTU-1 Cell Viability % 1 μM, 1 μM, 24 h; for viability at 10 µM: read-out: MUTU-1 Cell Viability % 10 μM, 10 μM, 24 h
[6] = system: MUTU-1 Burkitt lymphoma cell line (EBV+); details: 1 μM, 24 h
[7] = system: DG-75 Burkitt lymphoma cell line (EBV−, chemoresistant); details: 1 μM, 48 h
MUTU-I cell line = test: Lactate dehydrogenase (LDH) release cytotoxicity assay in MUTU-I cells; type: cell-based; details: percentage of total LDH release
Method: as §2

Structure (SMILES)	viability at 1 µM [1] [%]	viability at 10 µM [1] [%]	IC50 [1] [µM]	viability at 24 h, 0.5 µM [2] [%]	viability at 24 h, 1 µM [2] [%]	apoptosis in DG-75 at 1 µM [3] [%]	LDH release (cytotoxicity) in DG-75 at 10 µM (DG-75 cell line) [%]	apoptosis in MUTU-I at 0.5 µM ([4]; 0.5 µM) [%]	viability at 1 µM (DG-75 cells) [%]	IC50 [5] [µM]	viability at 1 µM [5] [%]	viability at 10 µM [5] [%]	MUTU-1 Cell Viability % 1 μM [6] [%]	apoptosis in DG-75 at 10 µM ([3]; 10 µM) [%]	apoptosis in MUTU-I at 0.2 µM ([4]; 0.2 µM) [%]	DG-75 Cell Viability % 1 μM [7] [%]	apoptosis in MUTU-I at all concentrations ([4]; all concentrations (0.2–10 µM))	LDH release (cytotoxicity) in MUTU-I at 1 µM (MUTU-I cell line; 1 µM) [%]	LDH release (cytotoxicity) in MUTU-I at 10 µM (MUTU-I cell line; 10 µM) [%]
COc1ccc(N2C(=O)C3C4c5ccccc5C(/C=C/[N+](=O)[O-])(c5ccccc54)C3C2=O)cc1 (stereo not drawn) [Compound 16c, (E)-13-(4-Methoxyphenyl)-9-(2-nitrovinyl)-9,10-dihydro-9,10-[3,4]epipyrroloanthracene-12,14-dione]	28.4	2.1	0.56	~99	72 to 81	29	25	> 90	6 to 23	0.2	0.19	1.1	–	–	–	–	–	–	–
O=C1C2C3c4ccccc4C(/C=C/[N+](=O)[O-])(c4ccccc43)C2C(=O)N1CCCCCCN1C(=O)C2C3c4ccccc4C(/C=C/[N+](=O)[O-])(c4ccccc43)C2C1=O (stereo not drawn) [Compound 15, 13,13′-(Hexane-1,6-diyl)bis(9-((E)-2-nitrovinyl)-9,10-dihydro-9,10[3,4]epipyrroloanthracene-12,14-dione)]	< 5	0	0.24	~99	72 to 81	–	–	–	6 to 23	0.09	< 5	2.1	4.5	95	> 90	3.8	–	–	–
O=C1C2C3c4ccccc4C(C=C[N+](=O)[O-])(c4ccccc43)C2C(=O)N1c1ccc(Cl)cc1 (stereo not drawn) [Compound 16b, (E)-13-(4-Chlorophenyl)-9-(2-nitrovinyl)-9,10-dihydro-9,10-[3,4]epipyrroloanthracene-12,14-dione]	< 6	0.52	0.45	~99	72 to 81	61	–	–	6 to 23	0.17	5	0.38	–	–	–	5.5	over 80%	5	2
